Test results as given in patent US8716475B2, “2-aminopyrimidine modulators of the histamine H4 receptor” (Janssen Pharmaceutica NV, priority 2007, dated 2014).
pKi: −log10 of the molar value.

These compounds were tested against T1, human H4 receptor (Homo sapiens, UniProt Q9H3N8) (assay: Binding Assay on Recombinant Human Histamine H4 Receptor). Details: Table 1; [3H] histamine competition binding, membranes of SK-N-MC cells transfected with human H4 receptor; average of results.
T1 construct: expressed in transfected cells
Method in brief: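 Radioligand binding used membranes from SK-N-MC cells stably or transiently expressing human H4, prepared in 50 mM Tris/5 mM EDTA. Nonspecific binding was defined with 100 μM histamine. Bound radioactivity was counted after filtration on PEI-treated GF/C filters, and ">" values are the highest concentration tested.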

Structure (SMILES) | pKi
CN1C[C@@H]2CN(c3cc(C4CCC4)nc(N)n3)C[C@@H]2C1 [Example 49, 4-Cyclobutyl-6-(cis-5-methyl-hexahydro-pyrrolo[3,4-c]pyrrol-2-yl)-pyrimidin-2-ylamine] | 7.30
CCc1cc(N2CCNCC2)nc(N)n1 [Example 33, 4-Ethyl-6-piperazin-1-yl-pyrimidin-2-ylamine] | 8.00
Cc1nc(N)nc(N2C[C@H]3CN(C)C[C@H]3C2)c1C [Example 30, 4,5-Dimethyl-6-(cis-5-methyl-hexahydro-pyrrolo[3,4-c]pyrrol-2-yl)-pyrimidin-2-ylamine] | 6.28
Cc1nc(N)nc(N2CC3CCNC3C2)c1C (stereo not drawn) [Example 29, 4-(cis-Hexahydro-pyrrolo[3,4-b]pyrrol-5-yl)-5,6-dimethyl-pyrimidin-2-ylamine] | < 5.00
CN[C@@H]1CCN(c2cc(C3CCCCC3)nc(N)n2)C1 [Example 53, (R)-(4-Cyclohexyl-6-3-methylamino-pyrrolidin-1-yl)-pyrimidin-2-ylamine] | 8.52
CN1CCN(c2cc(C3CCOC3)nc(N)n2)CC1 (stereo not drawn) [Example 57, 4-(4-Methyl-piperazin-1-yl)-6-(tetrahydro-furan-3-yl)-pyrimidin-2-ylamine] | 7.57
Nc1nc(C2CCC2)cc(N2C[C@H]3CNC[C@H]3C2)n1 [Example 48, 4-Cyclobutyl-6-(cis-hexahydro-pyrrolo[3,4-c]pyrrol-2-yl)-pyrimidin-2-ylamine] | 6.48

Second part, the compound after the results:

pKi | Structure (SMILES)
7.54 | CN1CCN(c2cc(C3CCOCC3)nc(N)n2)CC1 [Example 59, 4-(4-Methyl-piperazin-1-yl)-6-(tetrahydro-pyran-4-yl)-pyrimidin-2-ylamine]
7.39 | Nc1nc(C2CCOCC2)cc(N2CCNCC2)n1 [Example 58, 4-piperazin-1-yl-6-(tetrahydro-pyran-4-yl)-pyrimidin-2-ylamine]
6.59 | Nc1nc(C2CCCC2)cc(N2CCC[C@@H](N)C2)n1 [Example 3, (R)-4-(3-Amino-piperidin-1-yl)-6-cyclopentyl-pyrimidin-2-ylamine]
6.45 | CN[C@@H]1CCN(c2nc(N)nc(C)c2C)C1 [Example 28, (R)-4,5-Dimethyl-6-(3-methylamino-pyrrolidin-1-yl)-pyrimidin-2-ylamine]

Same assay, conditions: Table 2, data marked with an asterisk (*): obtained by the cell harvester method; [3H] histamine competition binding, SK-N-MC membranes

pKi | Structure (SMILES)
7.70 | Nc1nc(C2Cc3ccccc3C2)cc(N2CC3CCCNC3C2)n1 (stereo not drawn) [Example 251, 4-Indan-2-yl-6-(octahydro-pyrrolo[3,4-b]pyridin-6-yl)-pyrimidin-2-ylamine]

Same assay, conditions: Table 2; [3H] histamine competition binding, membranes of SK-N-MC cells transfected with human H4 receptor; average of results

Structure (SMILES) | pKi
CCCCc1cc(N(C)CCN)nc(N)n1 [Example 138, N^4-(2-Amino-ethyl)-6-butyl-N^4-methyl-pyrimidine-2,4-diamine] | 7.36
CN1CCN(c2cc(Cc3ccsc3)nc(N)n2)CC1 [Example 207, 4-(4-Methyl-piperazin-1-yl)-6-thiophen-3-ylmethyl-pyrimidin-2-ylamine] | 8.70
CN1C[C@@H]2CN(c3cc(C4CC4)nc(N)n3)C[C@@H]2C1 [Example 120, 4-Cyclopropyl-6-(cis-5-methyl-hexahydro-pyrrolo[3,4-c]pyrrol-2-yl)-pyrimidin-2-ylamine] | 6.95
CN1C[C@@H]2CN(c3nc(N)nc4c3COCC4)C[C@@H]2C1 [Example 254, 4-(cis-5-Methyl-hexahydro-pyrrolo[3,4-c]pyrrol-2-yl)-7,8-dihydro-5H-pyranol-[4,3-d]pyrimidin-2-ylamine] | < 5.00
Nc1nc(C2CC2)cc(N2C[C@H]3CNC[C@H]3C2)n1 [Example 124, 4-Cyclopropyl-6-(cis-hexahydro-pyrrolo[3,4-c]pyrrol-2-yl)-pyrimidin-2-ylamine] | < 5.00
Nc1nc(C2CCCC2)cc(N2CCC3(CCCN3)C2)n1 (racemic) [Example 84, 4-Cyclopentyl-6-(cis-1,7-diaza-spiro[4.4]non-7-yl)-pyrimidin-2-ylamine] | 7.96
CN1C[C@@H]2CN(c3cc(C(C)(C)C)nc(N)n3)C[C@@H]2C1 [Example 128, 4-tert-Butyl-6-(cis-5-methyl-hexahydro-pyrrolo[3,4-c]pyrrol-2-yl)-pyrimidin-2-ylamine] | 7.72
CN1C[C@@H]2CN(c3cc(CC4CCCO4)nc(N)n3)C[C@@H]2C1 (stereo partly drawn) [Example 229, 4-(cis-5-Methyl-hexahydro-pyrrolo[3,4-c]pyrrol-2-yl)-6-(tetrahydro-furan-2-ylmethyl)-pyrimidin-2-ylamine] | 6.44
NCCNc1cc(C2CCOCC2)nc(N)n1 [Example 176, N^4-(2-Amino-ethyl)-6-(tetrahydro-pyran-4-yl)-pyrimidine-2,4-diamine] | 6.47
Nc1nc2c(c(N3CC(N)C3)n1)COCC2 [Example 252, 4-(3-Amino-azetidin-1-yl)-7,8-dihydro-5H-pyrano[4,3-d]pyrimidin-2-ylamine] | < 5.00
Nc1nc2c(c(N3CCNCC3)n1)COCC2 [Example 100, 4-piperazin-1-yl-7,8-dihydro-5H-pyrano[4,3-d]pyrimidin-2-ylamine] | 6.58
CCCCc1cc(N2C[C@H]3CN(C)C[C@H]3C2)nc(N)n1 [Example 139, 4-Butyl-6-(cis-5-methyl-hexahydro-pyrrolo[3,4-c]pyrrol-2-yl)-pyrimidin-2-ylamine] | 6.86
CCCc1cc(N2C[C@H]3CN(C)C[C@H]3C2)nc(N)n1 [Example 145, 4-(cis-5-Methyl-hexahydro-pyrrolo[3,4-c]pyrrol-2-yl)-6-propyl-pyrimidin-2-ylamine] | 6.93

Second part, the compound after the results:

pKi | Structure (SMILES)
< 5.00 | Nc1nc2c(c(N3CC(N)C3)n1)CCCC2 [Example 253, 4-(3-Amino-azetidin-1-yl)-5,6,7,8-tetrahydro-quinazolin-2-ylamine]
6.52 | COc1c(C2CCCC2)nc(N)nc1N1CCN(C)CC1 [Example 185, 4-Cyclopentyl-5-methoxy-6-(4-methyl-piperazin-1-yl)-pyrimidin-2-ylamine]
7.72 | CC(C)c1cc(NCCN)nc(N)n1 [Example 89, (2-Amino-ethyl)-6-isopropyl-pyrimidine-2,4-diamine]
8.52 | Nc1nc(CCc2ccccc2)cc(N2CCNCC2)n1 [Example 247, 4-Phenethyl-6-piperazin-1-yl-pyrimidin-2-ylamine]
8.05 | Nc1nc(CCc2ccccc2)cc(N2CC(N)C2)n1 [Example 248, 4-(3-Amino-azetidin-1-yl)-6-phenethyl-pyrimidin-2-ylamine]
6.40 | CN[C@@H]1CCN(c2cc(C3Cc4ccccc4O3)nc(N)n2)C1 (stereo partly drawn) [Example 169, (R)-4-(2,3-Dihydro-benzofuran-2-yl)-6-(3-methylamino-pyrrolidin-1-yl)-pyrimidin-2-ylamine]
6.05 | COCc1cc(NCCN)nc(N)n1 [Example 219, N^4-(2-Amino-ethyl)-6-methoxymethyl-pyrimidine-2,4-diamine]
7.19 | COc1c(NCCN)nc(N)nc1C1CCCC1 [Example 116, N^4-(2-Amino-ethyl)-6-cyclopentyl-5-methoxy-pyrimidine-2,4-diamine]
6.69 | CNCCN(C)c1cc(C2CCOC2)nc(N)n1 (stereo not drawn) [Example 197, N^4-Methyl-N^4-(2-methylamino-ethyl)-6-(tetrahydro-furan-3-yl)-pyrimidine-2,4-diamine]
7.60 | CCOCc1cc(N2CCNCC2)nc(N)n1 [Example 240, 4-Ethoxymethyl-6-piperazin-1-yl-pyrimidin-2-ylamine]
7.34 | CC(C)(C)c1cc(N2CC[C@H](N)C2)nc(N)n1 [Example 129, (S)-4-(3-Amino-pyrrolidin-1-yl)-6-tert-butyl-pyrimidin-2-ylamine]
